Measurements published in US20220017512A1 (SHANGHAI ENNOVABIO PHARMACEUTICALS CO., LTD., priority 2018, published 2022).

Columns and labels:
Recombinant human TRKA = molecular target: T1, Recombinant human TRKA (Homo sapiens, UniProt P04629); experiment: In vitro activity test on TRKA kinase (HTRF KinEASE TK); assay type: biochemical; conditions: 14.68 μM ATP, 40 min
T1 construct: purchased Carna Biosciences
Method in brief: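 Reaction: 0.2 ng/μL TRKA, 1 μM biotinylated TK substrate, 14.68 μM ATP, 5 mM MgCl2, 1 mM DTT, 1% DMSO, 40 min at room temperature. Compounds tested at 1 μM to 0.05 nM (10-point, 3-fold, duplicate). HTRF 665/620 ratio converted to % inhibition versus no-compound control; IC50 by 4-parameter fit.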

ΔTRKA(G595R) = molecular target: T2, ΔTRKA(G595R) (Homo sapiens, UniProt P04629, G595R, form not given); experiment: Detection of TRK kinase activity on cellular level by ELISA, ΔTRKA(G595R)/NIH-3T3 cells; assay type: cell-based; conditions: NIH-3T3 cells stably expressing ΔTRKA(G595R), 2 hours treatment
T2 construct: NIH-3T3 cell line stably expressing ΔTRKA or ΔTRKA(G595R) was constructed by plasmid transfection
T2 sequence (P04629 440-796 G595R limits assumed, form open): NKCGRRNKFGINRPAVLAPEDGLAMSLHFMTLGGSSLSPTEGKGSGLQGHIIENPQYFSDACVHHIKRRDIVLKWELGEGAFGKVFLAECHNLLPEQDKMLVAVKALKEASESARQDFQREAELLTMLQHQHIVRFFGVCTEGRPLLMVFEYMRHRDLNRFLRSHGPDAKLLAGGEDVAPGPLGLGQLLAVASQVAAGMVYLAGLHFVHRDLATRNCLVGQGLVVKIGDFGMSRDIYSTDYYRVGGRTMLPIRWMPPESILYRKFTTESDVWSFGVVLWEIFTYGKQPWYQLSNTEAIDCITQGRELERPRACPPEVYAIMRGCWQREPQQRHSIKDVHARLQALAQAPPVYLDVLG
Protocol: Biological Test Example 4: Detection of TRK Kinase Activity on Cellular Level by ELISA
NIH-3T3 cell line stably expressing ΔTRKA or ΔTRKA(G595R) was constructed by plasmid transfection.
On the first day, cells were seeded into a 96-well cell culture plate, 10000 cells/well in the medium (DMEM+10% FBS). On the second day, different concentrations of test compounds were added to treat cells for 2 hours, then the cell culture plate was placed on ice; and the supernatant was removed and washed with pre-cooled PBS once. The cells were lysed with NP40 lysis buffer containing protease and phosphatase inhibitor, transferred to an antibody pre-coated plate, and sealed to incubate overnight at 4° C. The remaining steps were proceeded according to the method provided in the ELISA kit (eg, as described in R&D DYC2578-2), results were shown in Table 2.

KM12-LUC cells = experiment: KM12-LUC cell proliferation experiment (CellTiter-Glo, 72 hours); assay type: cell-based; conditions: Homo sapiens; KM12-LUC cells expressing TPM3-NTRK1 fusion gene
Text: Biological Test Example 3: KM12-LUC Cell Proliferation Experiment
Human colon cancer cell line KM12-LUC (LUC, stably expressing Luciferase) expressing TPM3-NTRK1 fusion gene was used to evaluate cellular activity of the compounds cellular level. The TRK fusion gene in KM12-LUC cells makes it independent on the stimulation of extracellular growth factor, sustainably self-activate and activate the downstream signal pathway associated with cell proliferation such as MAPK-ERK, PI3K-AKT, or the like. […] The method was as follows: On the first day, the cells were seeded into 384-well plates at 2,000 cells/well; on the second day, different concentrations of test compounds were added; and on the 5th day, CellTiter-Glo (Promega) was added to detect cellular potency, and 72 hours cell proliferation inhibition rate was calculated. Statistical analysis was carried out by Prism5 and the inhibition rate of the test compound were calculated, as shown in FIG. 1.

[1] = molecular target: T3, recombinant human TRKA (G667C) (Homo sapiens, UniProt P04629, G667C); experiment: In vitro activity test on mutant TRKA (G667C) (HTRF KinEASE TK); assay type: biochemical; conditions: 5.5 μM ATP, 30 min
T3 construct: purchased SignalChem
T3 sequence (P04629 33-796 G667C): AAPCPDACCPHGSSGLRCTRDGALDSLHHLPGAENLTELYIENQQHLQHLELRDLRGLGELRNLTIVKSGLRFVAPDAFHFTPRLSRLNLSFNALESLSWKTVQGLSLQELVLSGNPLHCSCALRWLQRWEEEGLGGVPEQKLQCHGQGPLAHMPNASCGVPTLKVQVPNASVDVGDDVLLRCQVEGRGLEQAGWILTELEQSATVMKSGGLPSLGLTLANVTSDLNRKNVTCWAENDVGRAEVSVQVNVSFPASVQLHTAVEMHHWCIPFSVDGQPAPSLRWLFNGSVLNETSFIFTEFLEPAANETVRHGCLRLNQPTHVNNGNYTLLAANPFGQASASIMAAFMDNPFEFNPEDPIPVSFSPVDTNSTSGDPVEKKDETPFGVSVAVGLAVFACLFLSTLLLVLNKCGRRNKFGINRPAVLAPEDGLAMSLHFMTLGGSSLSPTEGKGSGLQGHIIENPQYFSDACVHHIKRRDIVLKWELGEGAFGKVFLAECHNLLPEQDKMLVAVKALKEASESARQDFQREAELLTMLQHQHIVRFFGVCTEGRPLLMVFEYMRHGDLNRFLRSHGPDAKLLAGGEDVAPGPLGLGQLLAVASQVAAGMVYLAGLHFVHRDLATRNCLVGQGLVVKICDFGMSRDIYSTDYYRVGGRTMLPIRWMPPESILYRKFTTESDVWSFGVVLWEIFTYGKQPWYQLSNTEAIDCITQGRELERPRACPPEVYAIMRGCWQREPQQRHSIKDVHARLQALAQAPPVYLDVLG
Method in brief: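 HTRF KinEASE TK format with recombinant human TRKA G667C (0.026 ng/μL), 1 μM biotinylated TK substrate, 5.5 […] ATP, 5 mM MgCl2, 1 mM DTT, 1% DMSO; 30 min at room temperature. Detection overnight; 665/620 ratio gives % inhibition, IC50 from 4-parameter fit over 10 doses (1 μM–0.004 nM).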

Recombinant human TRKB = molecular target: T4, Recombinant human TRKB (Homo sapiens, UniProt Q16620); experiment: In vitro activity test on TRKB kinase (HTRF KinEASE TK); assay type: biochemical; conditions: 4.77 μM ATP, 50 min
T4 construct: purchased Carna Biosciences
T4 sequence (Q16620 32-822): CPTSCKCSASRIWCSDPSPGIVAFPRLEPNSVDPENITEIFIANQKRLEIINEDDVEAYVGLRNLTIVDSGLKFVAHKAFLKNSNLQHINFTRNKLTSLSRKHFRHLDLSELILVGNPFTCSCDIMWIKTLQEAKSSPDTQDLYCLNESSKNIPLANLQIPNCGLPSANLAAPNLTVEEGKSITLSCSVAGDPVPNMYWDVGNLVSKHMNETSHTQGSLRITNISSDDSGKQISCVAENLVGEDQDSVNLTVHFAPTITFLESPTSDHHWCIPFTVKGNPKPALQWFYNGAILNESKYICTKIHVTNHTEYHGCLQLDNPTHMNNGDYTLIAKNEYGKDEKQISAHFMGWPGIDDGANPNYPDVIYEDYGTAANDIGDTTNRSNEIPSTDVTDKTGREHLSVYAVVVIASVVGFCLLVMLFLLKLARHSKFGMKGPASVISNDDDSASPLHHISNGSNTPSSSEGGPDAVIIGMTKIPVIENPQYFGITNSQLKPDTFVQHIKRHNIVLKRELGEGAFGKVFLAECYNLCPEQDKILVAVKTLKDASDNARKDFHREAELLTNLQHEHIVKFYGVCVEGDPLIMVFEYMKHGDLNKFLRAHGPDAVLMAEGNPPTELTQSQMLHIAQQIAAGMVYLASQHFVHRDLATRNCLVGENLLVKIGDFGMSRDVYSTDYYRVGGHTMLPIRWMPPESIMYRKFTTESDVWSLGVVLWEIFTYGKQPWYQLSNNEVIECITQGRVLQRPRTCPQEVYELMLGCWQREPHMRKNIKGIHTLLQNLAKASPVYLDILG
Method in brief: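 Recombinant human TRKB (0.037 ng/μL) phosphorylated 1 μM biotinylated TK substrate at 4.77 μM ATP, 5 mM MgCl2, 1% DMSO, 50 min at room temperature; compounds 1 μM–0.05 nM. HTRF KinEASE detection overnight; 665/620 ratio converted to inhibition and IC50 from 4-parameter fit.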

[2] = molecular target: T5, recombinant human TRKA (G595R) (Homo sapiens, UniProt P04629, G595R); experiment: In vitro activity test on mutant TRKA (G595R) (HTRF KinEASE TK); assay type: biochemical; conditions: 4.5 μM ATP, 30 min
T5 construct: purchased SignalChem
T5 sequence (P04629 33-796 G595R): as the sequence (P04629 33-796 G667C) above, with G563R, C635G counted along it
Method in brief: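 HTRF KinEASE TK format: 0.12 ng/μL recombinant TRKA (G595R), 1 μM biotinylated TK substrate, 4.5 μM ATP, 5 mM MgCl2, 1 mM DTT, 1% DMSO, 30 min at room temperature; detection overnight. IC50 from 10-point 4-fold series (1 μM to 0.004 nM, duplicates), 665/620 ratio, 4-parameter fit.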

Recombinant human TRKC = molecular target: T6, Recombinant human TRKC (Homo sapiens, UniProt Q16288); experiment: In vitro activity test on TRKC kinase (HTRF KinEASE TK); assay type: biochemical; conditions: 25.64 μM ATP, 40 min
T6 construct: purchased Carna Biosciences
T6 sequence (Q16288 32-839): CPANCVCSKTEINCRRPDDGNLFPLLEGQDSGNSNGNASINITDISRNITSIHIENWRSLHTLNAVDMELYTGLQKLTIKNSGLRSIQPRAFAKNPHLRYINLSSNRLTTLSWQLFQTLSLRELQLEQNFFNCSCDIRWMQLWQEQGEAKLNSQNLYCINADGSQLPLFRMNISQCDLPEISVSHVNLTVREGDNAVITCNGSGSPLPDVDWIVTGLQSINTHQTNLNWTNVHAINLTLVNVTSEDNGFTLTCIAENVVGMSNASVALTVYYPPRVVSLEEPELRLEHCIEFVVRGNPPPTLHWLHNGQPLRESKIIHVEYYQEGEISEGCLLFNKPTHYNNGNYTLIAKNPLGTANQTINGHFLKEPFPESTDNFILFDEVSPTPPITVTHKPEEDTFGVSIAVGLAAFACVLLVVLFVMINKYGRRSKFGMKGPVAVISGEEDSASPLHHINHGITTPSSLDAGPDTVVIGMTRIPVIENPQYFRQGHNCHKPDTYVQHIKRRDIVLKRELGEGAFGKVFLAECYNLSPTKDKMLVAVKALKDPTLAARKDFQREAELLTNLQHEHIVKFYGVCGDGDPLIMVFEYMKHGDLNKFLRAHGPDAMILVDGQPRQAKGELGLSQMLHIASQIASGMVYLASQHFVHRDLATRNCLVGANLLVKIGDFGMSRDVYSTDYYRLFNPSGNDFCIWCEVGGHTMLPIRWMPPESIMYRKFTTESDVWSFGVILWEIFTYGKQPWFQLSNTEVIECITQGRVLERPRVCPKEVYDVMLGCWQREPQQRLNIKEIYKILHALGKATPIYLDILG
Method in brief: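 Recombinant human TRKC (0.037 ng/μL) with 1 μM biotinylated TK substrate, 25.64 μM ATP, 5 mM MgCl2, 1 mM DTT, 40 min at room temperature; compound 1 μM to 0.05 nM, 1% DMSO. HTRF 665/620 ratio after overnight detection; IC50 from 4-parameter fit.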

T1 sequence (P04629 33-796): as the sequence (P04629 33-796 G667C) above, with C635G counted along it

| Structure (SMILES) | IC50 (Recombinant human TRKA) | IC50 (ΔTRKA(G595R)) | IC50 [1] | IC50 (Recombinant human TRKB) | IC50 [2] | IC50 (Recombinant human TRKC) | IC50 (KM12-LUC cells) |
| --- | --- | --- | --- | --- | --- | --- | --- |
| Fc1ccc(F)c([C@H]2CCCN2c2ccc3nccc(-c4cnn(C5CCNCC5)c4)c3n2)c1 [Example 7, (R)-2-(2-(2,5-Difluorophenyl)pyrrolidin-1-yl)-8-(1-(piperidin-4-yl)-1H-pyrazol-4-yl)-1,5-naphthyridine] | < 50 nM | < 10 nM | < 1 nM | < 100 nM | < 1 nM | < 50 nM | < 10 nM |
| [2H]c1nc(-c2cnn(C3CCNCC3)c2)c2nc(N3C[C@@H](F)C[C@@H]3c3cc(F)ccc3F)ccc2n1 [Example 58] | < 1 nM | < 10 nM | < 1 nM | < 10 nM | < 1 nM | < 1 nM | < 10 nM |
| Fc1ccc(F)c([C@H]2C[C@H](F)CN2c2ccc3ncc(Cl)c(-c4ccc(C5CCNCC5)nc4)c3n2)c1 [Example 63, 7-chloro-2-((2R,4S)-2-(2,5-difluorophenyl)-4-fluoropyrrolidin-1-yl)-8-(6-(piperidin-4-yl)pyridin-3-yl)-1,5-naphthyridine] | < 1 nM | < 10 nM |  | < 10 nM | < 10 nM | < 10 nM | < 10 nM |

Further lines, with some results ahead:

| IC50 (Recombinant human TRKA) | IC50 (ΔTRKA(G595R)) | IC50 [1] | IC50 (Recombinant human TRKB) | IC50 [2] | IC50 (Recombinant human TRKC) | Structure (SMILES) | IC50 (KM12-LUC cells) |
| --- | --- | --- | --- | --- | --- | --- | --- |
| < 1 nM | < 10 nM | < 10 nM | < 10 nM | < 10 nM | < 10 nM | O[C@@H]1CCN(c2ccc(-c3c(Cl)cnc4ccc(N5C[C@@H](F)C[C@@H]5c5cc(F)ccc5F)nc34)cn2)C1 [Example 65, (R)-1-(5-(3-chloro-6-((2R,4S)-2-(2,5-difluorophenyl)-4-fluoropyrrolidin-1-yl)-1,5-naphthyridin-4-yl)pyridin-2-yl)pyrrolidin-3-ol] | < 10 nM |
| < 1 nM |  |  | < 10 nM |  | < 1 nM | O=C1CNCCN1c1ccc(-c2c(F)cnc3ccc(N4C[C@@H](F)C[C@@H]4c4cc(F)ccc4F)nc23)cn1 [Example 97, 1-(5-(6-((2R,4S)-2-(2,5-difluorophenyl)-4-fluoropyrrolidin-1-yl)-3-fluoro-1,5-naphthyridin-4-yl)pyridin-2-yl)piperazin-2-one] | < 10 nM |
